The record followed here is PMC10128460, “Discovery of the first-in-class potent and isoform-selective human carbonic anhydrase III inhibitors” (Journal of Enzyme Inhibition and Medicinal Chemistry, 2023).

The term pKi denotes the Ki on a negative log10 scale, so that one unit is a factor of ten. As usually defined, the melting point is the temperature of the solid-liquid transition.

The target of series [1] is T1, hCA I (Homo sapiens, UniProt P00915).
T1 construct: made in house
The series can be described thus: Stopped-Flow CO2 hydrase assay, hCA I. As to conditions: mean from 3 assays, errors ± 5–10%. Format: biochemical.
Protocol: (§1) An Applied Photophysics stopped-flow instrument has been used for assaying the CA catalysed CO2 hydration activity[47]. […] The CO2 concentrations ranged from 1.7 to 17 mM for the determination of the kinetic parameters and inhibition constants. […] The uncatalysed rates were determined in the same manner and subtracted from the total observed rates. Stock solutions of inhibitor (0.1 mM) were prepared in distilled − deionized water and dilutions up to 0.01 nM were done thereafter with the assay buffer. Inhibitor and enzyme solutions were preincubated together for 15 min at room temperature before assay to allow for the formation of the E − I complex. The inhibition constants were obtained by nonlinear least-squares methods using PRISM 3 and the Cheng − Prusoff equation, as reported earlier[48]^,[49], and represent the mean from at least three different determinations. […] All hCA isoforms were recombinant ones obtained in-house as reported earlier[50].

Series [2] addresses T2, hCA II (Homo sapiens, UniProt P00918).
T2 construct: made in house
The series can be described thus: Stopped-Flow CO2 hydrase assay, hCA II. It is filed as biochemical. As to conditions: mean from 3 assays, errors ± 5–10%.
Protocol: as §1

For series [3], the target named is T3, hCA III (Homo sapiens, UniProt P07451).
T3 construct: made in house
T3 sequence (P07451 whole entry): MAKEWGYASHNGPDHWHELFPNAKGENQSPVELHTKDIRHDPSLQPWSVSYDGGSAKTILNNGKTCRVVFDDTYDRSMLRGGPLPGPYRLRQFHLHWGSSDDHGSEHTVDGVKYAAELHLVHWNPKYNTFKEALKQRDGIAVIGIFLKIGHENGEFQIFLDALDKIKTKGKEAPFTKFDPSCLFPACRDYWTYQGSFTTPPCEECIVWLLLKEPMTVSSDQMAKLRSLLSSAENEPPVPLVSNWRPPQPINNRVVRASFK
The series can be described thus: Stopped-Flow CO2 hydrase assay, hCA III. It is filed as biochemical. As to conditions: for Selectivity Index (SI) hCA I/hCA III: ratio of KI hCA I to KI hCA III; for Selectivity Index (SI) hCA II/hCA III: ratio of KI hCA II to KI hCA III; for pKi: stopped-flow CO2 hydrase, mean from 3 assays, errors ± 5–10%.
Protocol: as §1

The target of series [4] is T4, hCA IV (Homo sapiens, UniProt P22748).
T4 construct: made in house
T4 sequence (P22748 19-312): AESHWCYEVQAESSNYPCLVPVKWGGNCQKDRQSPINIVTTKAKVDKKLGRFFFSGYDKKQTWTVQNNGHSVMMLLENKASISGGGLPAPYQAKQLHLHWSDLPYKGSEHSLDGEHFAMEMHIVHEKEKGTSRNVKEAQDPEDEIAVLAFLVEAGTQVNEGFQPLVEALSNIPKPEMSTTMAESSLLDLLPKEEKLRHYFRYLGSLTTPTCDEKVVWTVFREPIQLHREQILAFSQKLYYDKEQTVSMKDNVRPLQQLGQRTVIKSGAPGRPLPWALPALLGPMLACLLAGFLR
Put plainly: Stopped-Flow CO2 hydrase assay, hCA IV. Format: biochemical. As to conditions: mean from 3 assays, errors ± 5–10%.
Protocol: as §1

The target in series [5] is T5, hCA VA (Homo sapiens, UniProt P35218).
T5 construct: made in house
T5 sequence (P35218 39-305): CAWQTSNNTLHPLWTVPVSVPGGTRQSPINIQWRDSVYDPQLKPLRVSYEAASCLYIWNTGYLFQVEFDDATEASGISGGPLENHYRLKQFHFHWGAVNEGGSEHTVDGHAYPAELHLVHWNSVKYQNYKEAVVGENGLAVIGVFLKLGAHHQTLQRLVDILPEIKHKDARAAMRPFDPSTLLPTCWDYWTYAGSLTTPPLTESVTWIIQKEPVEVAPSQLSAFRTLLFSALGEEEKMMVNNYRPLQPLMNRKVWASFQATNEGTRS
The series can be described thus: Stopped-Flow CO2 hydrase assay, hCA VA. It is filed as biochemical. The note with it: stopped-flow CO2 hydrase, mean from 3 assays, errors ± 5–10%; read-out: KI hCA VA.
Protocol: as §1

Series [6] concerns the target T6, hCA VB (Homo sapiens, UniProt Q9Y2D0).
T6 construct: made in house
The series can be described thus: Stopped-Flow CO2 hydrase assay, hCA VB. Format: biochemical. The note with it: mean from 3 assays, errors ± 5–10%.
Protocol: as §1

Series [7] has as its target T7, hCA VII (Homo sapiens, UniProt P43166).
T7 construct: made in house
The series can be described thus: Stopped-Flow CO2 hydrase assay, hCA VII. The note with it: mean from 3 assays, errors ± 5–10%. It is filed as biochemical.
Protocol: as §1

Series [8] deals with T8, hCA XII (Homo sapiens, UniProt O43570).
T8 construct: made in house
T8 sequence (O43570 25-354): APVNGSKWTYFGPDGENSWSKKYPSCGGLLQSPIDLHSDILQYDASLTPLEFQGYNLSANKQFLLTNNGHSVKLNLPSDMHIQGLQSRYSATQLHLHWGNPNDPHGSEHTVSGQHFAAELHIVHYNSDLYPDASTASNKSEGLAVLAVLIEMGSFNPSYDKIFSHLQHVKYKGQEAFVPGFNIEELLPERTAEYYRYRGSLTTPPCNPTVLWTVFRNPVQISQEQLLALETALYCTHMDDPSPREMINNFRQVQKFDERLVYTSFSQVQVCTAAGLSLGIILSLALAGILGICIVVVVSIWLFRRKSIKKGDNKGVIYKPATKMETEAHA
Put plainly: Stopped-Flow CO2 hydrase assay, hCA XII. Format: biochemical. The note with it: mean from 3 assays, errors ± 5–10%.
Protocol: as §1

pKi: −log10 of the molar value. “And” between values parts separate entries of the source, which are not always exact repeats. Identical values can stand only once.

T6 sequence (Q9Y2D0 34-317): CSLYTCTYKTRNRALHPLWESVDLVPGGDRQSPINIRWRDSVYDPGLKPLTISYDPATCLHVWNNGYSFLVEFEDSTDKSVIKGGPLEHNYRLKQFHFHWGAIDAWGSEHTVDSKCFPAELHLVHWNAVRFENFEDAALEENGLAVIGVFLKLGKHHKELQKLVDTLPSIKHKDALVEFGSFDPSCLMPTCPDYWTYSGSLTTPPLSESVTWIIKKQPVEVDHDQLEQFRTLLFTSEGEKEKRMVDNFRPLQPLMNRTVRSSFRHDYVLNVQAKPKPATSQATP
T7 sequence (P43166 whole entry): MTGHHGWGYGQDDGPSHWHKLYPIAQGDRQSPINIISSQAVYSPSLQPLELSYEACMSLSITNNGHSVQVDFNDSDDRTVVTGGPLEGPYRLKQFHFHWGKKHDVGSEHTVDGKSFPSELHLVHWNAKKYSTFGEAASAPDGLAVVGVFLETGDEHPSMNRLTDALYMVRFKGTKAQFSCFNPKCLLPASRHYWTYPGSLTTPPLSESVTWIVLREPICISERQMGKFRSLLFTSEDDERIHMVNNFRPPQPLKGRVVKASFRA
T1 sequence (P00915 whole entry): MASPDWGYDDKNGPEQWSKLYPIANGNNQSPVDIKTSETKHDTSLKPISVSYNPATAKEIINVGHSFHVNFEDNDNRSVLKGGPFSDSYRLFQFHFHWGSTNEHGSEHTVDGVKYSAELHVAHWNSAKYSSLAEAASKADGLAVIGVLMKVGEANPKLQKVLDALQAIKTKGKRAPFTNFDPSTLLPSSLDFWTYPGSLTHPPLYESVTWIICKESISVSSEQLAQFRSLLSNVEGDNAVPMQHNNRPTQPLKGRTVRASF

In the case of “3–(4-(3-Fluorophenyl)-1H-1,2,3-triazol-1-yl)propane-1-sulfonamide [Compound 39]”, the pKi was 6.06 in [1]; 5.50 in [2]; 6.79 in series [3]; 5.58 in series [4]; 5.80 in series [5]; 5.88 in series [6]. Moreover, the figures for the pKi in series [7] and in series [8] were 5.19 and 5.91, respectively. The “Selectivity Index (SI) hCA I/hCA III” value in [3] is on record as 5.3. Besides, the “Selectivity Index (SI) hCA II/hCA III” value in series [3] was 19.34 and 19.3.
“3–(4-Phenyl-1H-1,2,3-triazol-1-yl)propane-1-sulfonamide [Compound 38]”: the pKi in series [1] was 6.22; in series [2] it was 6.15; in series [3], 6.30; in series [4], 6.02; in series [5], 5.78; in series [6] it was 5.98. Further, the pKi in [7] is 6.07; in series [8] it was 5.97. Moreover, in series [3], the “Selectivity Index (SI) hCA I/hCA III” value was 1.21 and 1.2. The “Selectivity Index (SI) hCA II/hCA III” value in series [3] amounted to 1.4.
For “4–(4-(3-Fluorophenyl)-1H-1,2,3-triazol-1-yl)butane-1-sulfonamide [Compound 52]”, the pKi in series [1] was 6.11; in series [2] it was 5.09; in series [3], 6.51; in series [4] it was below 5.00; in series [5] it was 5.90; in series [6] it was 5.52. The pKi in series [7] is 5.49; in [8], 5.11. Besides, the “Selectivity Index (SI) hCA I/hCA III” value in series [3] is given as 2.5. The “Selectivity Index (SI) hCA II/hCA III” value in series [3] is 26.2.
Consider `NS(=O)(=O)CCCn1cc(COc2ccccc2)nn1` [Compound 27, 3–(4-(Phenoxymethyl)-1H-1,2,3-triazol-1-yl)propane-1-sulfonamide], for which the melting point lay within 254 to 255 °C. The compound also gave a negative logarithm of the Ki (pKi) in series [1] of 6.12. For the same compound, in [2], the pKi is 5.57. In series [3], the “Selectivity Index (SI) hCA I/hCA III” value is 1.16 and 1.2; the “Selectivity Index (SI) hCA II/hCA III” value worked out at 4.2; the negative-log Ki (pKi) is 6.18. Besides, the negative logarithm of the Ki (pKi) in series [4] was 5.33. Besides, the pKi in series [5] was 5.41. In series [6], the negative-log Ki (pKi) is 5.54. The pKi in series [7] was 5.57. In series [8], this compound gave a pKi of 5.57.
Take `NS(=O)(=O)CCCn1cc(COc2ccc(F)cc2)nn1` [Compound 28, 3–(4-((4-Fluorophenoxy)methyl)-1H-1,2,3-triazol-1-yl)propane-1-sulfonamide]: the melting point lay within 261 to 263 °C. Also, in series [1], the negative-log Ki (pKi) was 5.31. This compound gave a pKi in series [2] of 5.69. Besides, in series [3], the “Selectivity Index (SI) hCA I/hCA III” value is recorded as 6.7, the “Selectivity Index (SI) hCA II/hCA III” value was 2.8 and the negative logarithm of the Ki (pKi) is 6.14. In [4], this compound had a negative logarithm of the Ki (pKi) below 5.00. Also, the negative logarithm of the Ki (pKi) in [5] is 5.99. Besides, in [6], the negative logarithm of the Ki (pKi) was 5.61. The same compound gave a negative-log Ki (pKi) in series [7] of 5.36. This compound also gave a pKi in series [8] of 5.61.
`COc1ccc(OCc2cn(CCCS(N)(=O)=O)nn2)cc1` [Compound 29, 3–(4-((4-Methoxyphenoxy)methyl)-1H-1,2,3-triazol-1-yl)propane-1-sulfonamide] had a melting point of 273 to 274 °C. The compound further had a pKi in series [1] of 5.94. This compound also showed a negative-log Ki (pKi) in [2] of 5.61. In series [3], the “Selectivity Index (SI) hCA I/hCA III” value is on record as 2.1, the “Selectivity Index (SI) hCA II/hCA III” value worked out at 4.4 and the pKi was 6.26. In series [4], this compound showed a negative logarithm of the Ki (pKi) of 5.26. In addition, the pKi in series [5] was 5.32. The pKi in series [6] was 5.52. The compound also gave a pKi in series [7] of 5.57. Besides, in [8], the pKi was 5.71.
`COc1cccc(OCc2cn(CCCS(N)(=O)=O)nn2)c1` [Compound 30, 3–(4-((3-Methoxyphenoxy)methyl)-1H-1,2,3-triazol-1-yl)propane-1-sulfonamide] yielded a melting point of 270 to 272 °C. In addition, the negative logarithm of the Ki (pKi) in [1] is 5.72. For the same compound, the pKi in series [2] was 5.39. Further, in [3], the “Selectivity Index (SI) hCA I/hCA III” value turned out to be 5.5; the “Selectivity Index (SI) hCA II/hCA III” value was 11.89 and 11.9; the negative-log Ki (pKi) was 6.46. Besides, the negative-log Ki (pKi) in series [4] was below 5.00. Moreover, the pKi in [5] was 5.54. In addition, the pKi in series [6] is 5.84. The pKi in series [7] is 5.33. This compound also showed a pKi in [8] of 5.96.
Compound `NS(=O)(=O)CCCn1cc(CNC(=O)Nc2ccc(F)cc2)nn1` [Compound 31, 3–(4-((3–(4-Fluorophenyl)ureido)methyl)-1H-1,2,3-triazol-1-yl)propane-1-sulfonamide] came in with a melting point of 249 to 252 °C. Moreover, in series [1], the pKi was below 5.00. The same compound showed a negative logarithm of the Ki (pKi) in series [2] of 5.54. In series [3], the “Selectivity Index (SI) hCA II/hCA III” value turned out to be 3.5 and the pKi is 6.08. This compound had a pKi in series [4] of 5.23. Besides, the pKi in series [5] was 5.24. For the same compound, in [6], the negative-log Ki (pKi) is 5.23. The same compound showed a pKi in series [7] of 5.34. In [8], this compound had a pKi of 5.82.
As to `Cc1ccc(NC(=O)NCc2cn(CCCS(N)(=O)=O)nn2)cc1` [Compound 32, 3–(4-((3-(p-Tolyl)ureido)methyl)-1H-1,2,3-triazol-1-yl)propane-1-sulfonamide], the melting point was in the range of 217 to 218 °C. The pKi in series [1] was below 5.00. Also, the pKi in [2] was 5.53. For the same compound, in [3], the “Selectivity Index (SI) hCA II/hCA III” value stood at 3.8 and the pKi is 6.11. Besides, in [4], the pKi was 5.21. Also, the negative-log Ki (pKi) in series [5] is 5.06. Also, the negative logarithm of the Ki (pKi) in series [6] is 5.79. The same compound gave a negative logarithm of the Ki (pKi) in series [7] of 5.36. Besides, the pKi in series [8] is 5.30.
In the case of `NS(=O)(=O)CCCn1cc(CNC(=O)Nc2ccc(C(F)(F)F)cc2)nn1` [Compound 33, 3–(4-((3–(4-(Trifluoromethyl)phenyl)ureido)methyl)-1H-1,2,3-triazol-1-yl)propane-1-sulfonamide], the melting point is above 300 °C. In [1], this compound showed a pKi below 5.00. Also, the negative logarithm of the Ki (pKi) in [2] is 5.38. Also, in [3], the “Selectivity Index (SI) hCA II/hCA III” value is 4.2 and the negative-log Ki (pKi) is 6.00. In series [4], this compound showed a pKi of 6.06. Besides, in [5], the negative logarithm of the Ki (pKi) is 5.15. In [6], this compound showed a negative logarithm of the Ki (pKi) of 5.68. This compound had a pKi in series [7] of 5.27. The same compound showed a pKi in series [8] of 5.58.
The compound `CCOC(=O)c1ccc(NC(=O)NCc2cn(CCCS(N)(=O)=O)nn2)cc1` [Compound 34, Ethyl 4–(3-((1–(3-sulfamoylpropyl)-1H-1,2,3-triazol-4-yl)methyl)ureido)benzoate] displayed a melting point of 239 to 241 °C. In [1], the pKi was below 5.00. Moreover, the pKi in series [2] was 5.60. Further, in [3], the “Selectivity Index (SI) hCA I/hCA III” value was above 18.29, the “Selectivity Index (SI) hCA II/hCA III” value came to 4.6 and the pKi is 6.26. The same compound showed a pKi in [4] of 5.35. Moreover, the pKi in [5] is 5.58. Besides, the pKi in series [6] was 5.43. This compound also showed a pKi in [7] of 5.64. Further, the negative logarithm of the Ki (pKi) in series [8] was 5.31.
With `COc1cccc(NC(=O)NCc2cn(CCCS(N)(=O)=O)nn2)c1` [Compound 35, 3–(4-((3–(3-Methoxyphenyl)ureido)methyl)-1H-1,2,3-triazol-1-yl)propane-1-sulfonamide], the melting point lay within 214 to 215 °C. The pKi in series [1] was below 5.00. In addition, the negative logarithm of the Ki (pKi) in series [2] is 6.03. Besides, in [3], the “Selectivity Index (SI) hCA II/hCA III” value is 1.19 and 1.2; the pKi was 6.10. The compound further had a pKi in series [4] below 5.00. Moreover, the negative-log Ki (pKi) in [5] is 5.69. In series [6], this compound gave a pKi of 5.40. Besides, the pKi in series [7] was 5.35. In addition, the pKi in series [8] was 5.70.
Regarding `NS(=O)(=O)CCCCn1cc(COc2ccccc2)nn1` [Compound 40, 4–(4-(Phenoxymethyl)-1H-1,2,3-triazol-1-yl)butane-1-sulfonamide], the melting point is 221 to 223 °C. In series [1], this compound had a pKi of 5.18. The pKi in series [2] was 5.11. Besides, in series [3], the “Selectivity Index (SI) hCA I/hCA III” value stood at 8.0, the “Selectivity Index (SI) hCA II/hCA III” value was 9.5 and the negative-log Ki (pKi) was 6.09. Further, the pKi in [4] is 5.44. Moreover, the negative logarithm of the Ki (pKi) in series [5] is 5.11. In addition, the negative-log Ki (pKi) in [6] is 5.82. The same compound had a negative logarithm of the Ki (pKi) in [7] of 5.12. Further, the negative logarithm of the Ki (pKi) in series [8] is 5.29.
As for `COc1ccc(NC(=O)NCc2cn(CCCCS(N)(=O)=O)nn2)c(C)c1` [Compound 49, 4–(4-((3–(4-Methoxy-2-methylphenyl)ureido)methyl)-1H-1,2,3-triazol-1-yl)butane-1-sulfonamide], the melting point fell in the range of 282 to 285 °C. In [1], this compound had a pKi below 5.00. Further, in [5], the negative logarithm of the Ki (pKi) was 5.06. Further, the negative logarithm of the Ki (pKi) in series [7] was 5.29. In series [8], this compound gave a negative-log Ki (pKi) of 5.23.
With “Ethyl 1–(4-sulfamoylbutyl)-1H-1,2,3-triazole-4-carboxylate [Compound 50]”, the negative-log Ki (pKi) in series [1] was 6.04; in [2], 6.11; in [3], 6.11; in [4], 5.40; in series [5], 6.04; in [6], 6.09. Besides, the pKi in series [7] was 6.09; in [8], 5.99. For the same compound, the “Selectivity Index (SI) hCA I/hCA III” value in series [3] is 1.18 and 1.2. The “Selectivity Index (SI) hCA II/hCA III” value in [3] is recorded as 1.0.
